Results as given in paper PMC4186431 (Pharmacology Research & Perspectives, 2013).
Where two headings read alike, the source gives them in different places. Blank lines part the entries; values can stand above or below the compound they belong to.

Experiments:
[1] = system: isolated guinea pig ileum; parameters: method as in Leopoldo et al. [2008]; conditions: ex vivo; ref Leopoldo et al. [2008]; cited from earlier work
[2] = system: mouse hippocampal slices; parameters: method as in Costa et al. [2012]; conditions: ref Costa et al. [2012]; cited from earlier work
[3] = system: wild type and 5-HT7 knock-out mice; parameters: method as in Hedlund et al. [2010]; conditions: ref Hedlund et al. [2010]; cited from earlier work
[4] = target: D2; parameters: method as in Leopoldo et al. [2008]; conditions: ref Leopoldo et al. [2008]; cited from earlier work
[5] = target: rat 5-HT7 receptors; parameters: method as in Leopoldo et al. [2008]; Hedlund et al. [2010]; conditions: cloned in cell lines; ref Leopoldo et al. [2008]; Hedlund et al. [2010]; cited from earlier work
[6] = system: mice; parameters: method as in Adriani et al. [2012]; conditions: ref Adriani et al. [2012]; cited from earlier work
[7] = system: forskolin-stimulated adenylate cyclase activity in HEK-hu5-HT7 cells; test: Forskolin-stimulated cAMP production in the presence of the compounds, HEK-hu5-HT7 cells; format: cell-based; conditions: Homo sapiens; 10 μmol/L forskolin, continuous presence of the compounds; read-out: IC50, inhibition of forskolin-stimulated adenylate cyclase activity
Protocol: (§1) cAMP levels were quantified using the homogeneous time-resolved fluorescence (HTRF)-based cAMP dynamic kit (Cisbio, Bioassays, Codolet, France). […] In all cases, basal cAMP levels were determined in control wells in the absence of agonist. The effects of the compounds on forskolin-stimulated adenylate cyclase activity were evaluated either at a single concentration (parental HEK293 cells) or by using concentration–response curves (HEK-hu5-HT7 cells). Cells were incubated in the absence (control) or presence of the compounds, at the concentrations indicated, in assay buffer for 15 min at 37°C prior to the addition of forskolin and further incubation for 15 min. Basal cAMP levels were determined in control wells in the absence of forskolin. After proceeding with the subsequent assay steps according to the manufacturer's protocol, the fluorescence emission intensity ratio at 665/620 nm wavelength was measured in an Ultra Evolution 384 microplate reader (TECAN, Männedorf, Switzerland).
The data were analyzed using GraphPad Prism software v4.0 (GraphPad Software Inc., San Diego, CA). Receptor density (Bmax) and the dissociation constant (Kd) of the radioligand were determined by nonlinear regression curve fitting of saturation binding curves to a one-site binding (hyperbola) model. […] Results are expressed as the mean values ± SEM from the number of independent experiments indicated. […]

[8] = target: T1, human 5-HT7(a) receptor (Homo sapiens, UniProt P34969); test: Whole-cell [^3H]-SB-269970 radioligand binding (preincubation/washout experiments); conditions: for inhibition at 10 µM: read-out: Inhibition of specific binding of [^3H]-SB-269970 after preincubation and washout, 10 μmol/L, 30 min at 37°C, time t = 0 after washout
Protocol: After incubation for 30 min at 37°C, the assay was stopped, as previously described.
(§2) The data were analyzed using GraphPad Prism software v4.0 (GraphPad Software Inc., San Diego, CA). Receptor density (Bmax) and the dissociation constant (Kd) of the radioligand were determined by nonlinear regression curve fitting of saturation binding curves to a one-site binding (hyperbola) model. […] The IC50 values were determined by nonlinear regression curve fitting to sigmoidal dose–response or sigmoidal dose–response (variable slope) models, as indicated. […] Results are expressed as the mean values ± SEM from the number of independent experiments indicated. Prediction of log of octanol/water partition coefficient (xlog P) values were retrieved from ZINC database (http://zinc.docking.org/) (Irwin et al. [2012]).

[9] = system: rat trigeminal nucleus caudalis; parameters: method as in Martínez-García et al. [2011]; conditions: ref Martínez-García et al. [2011]; cited from earlier work
[10] = target: T1, human 5-HT7(a) receptor; test: cAMP assay, agonist effects in HEK-hu5-HT7 cells; format: cell-based; conditions: 100 pmol/L to 10 μmol/L, data not shown
Protocol: as §1

[11] = system: forskolin-stimulated adenylate cyclase activity in HEK-hu5-HT7 cells; test: Forskolin-stimulated cAMP production, preincubation/washout experiments, HEK-hu5-HT7 cells; format: cell-based; conditions: Homo sapiens; 30 min preincubation, washout, then 10 μmol/L forskolin 15 min, n = 3; read-out: IC50, irrev, forskolin-stimulated adenylate cyclase activity
Protocol: (§3) After proceeding with the subsequent assay steps according to the manufacturer's protocol, fluorescence was measured as previously described.
(§4) The data were analyzed using GraphPad Prism software v4.0 (GraphPad Software Inc., San Diego, CA). Receptor density (Bmax) and the dissociation constant (Kd) of the radioligand were determined by nonlinear regression curve fitting of saturation binding curves to a one-site binding (hyperbola) model. […] The IC50 values were determined by nonlinear regression curve fitting to sigmoidal dose–response or sigmoidal dose–response (variable slope) models, as indicated. […] Results are expressed as the mean values ± SEM from the number of independent experiments indicated.

[12] = target: 5-HT1A; conditions: ref Leopoldo et al. [2008], cited from earlier work
[13] = parameters: method as in Hedlund et al. [2010]; conditions: mice; ref Hedlund et al. [2010]; cited from earlier work
[14] = system: forskolin-stimulated adenylate cyclase activity in parental HEK293 cells; test: Forskolin-stimulated cAMP production in parental HEK293 cells; format: cell-based, human; conditions: 1 μmol/L or 10 μmol/L compound, parental HEK293 cells (Fig. 7 inset)
Protocol: as §1

[15] = target: T1, human 5-HT7(a) receptor; test: Membrane homogenate [^3H]-SB-269970 radioligand binding; conditions: for Hill slope nH (membrane homogenate radioligand binding): [^3H]-SB-269970 competition, best fit model (nH = 1 or variable slope)
Protocol: Cell membrane homogenate was prepared as previously described (Varin et al. [2010]). […] After incubation, the reactions were stopped by filtration in a harvester apparatus through GF/B filters pretreated with 0.25% (w/v) poly(ethyleneimine) solution. Filters were counted in a LS-6000LL beta counter (Beckman Coulter, Inc., Fullerton, CA, USA).
as §2

[16] = target: T2, human 5-HT7 receptors (Homo sapiens, UniProt P34969); conditions: estimated from experiments with behavior not compatible with classical competitive binding; ref Leopoldo et al. [2008]; cited from earlier work
[17] = target: T1, human 5-HT7(a) receptor; test: 5-CT-stimulated cAMP assay, preincubation/washout experiments, HEK-hu5-HT7 cells; format: cell-based; conditions: read-out: IC50, irrev, 5-CT-stimulated cAMP production
Protocol: as §3, §4

[18] = target: T1, human 5-HT7(a) receptor; test: Whole-cell [^3H]-SB-269970 radioligand binding (in the presence of the compounds)
Protocol: as §2

[19] = system: 5-HT1A; test: Literature affinity for 5-HT1A receptors; format: binding; conditions: reported 5-HT1A affinity versus 5-HT7 affinity of this study; ref Leopoldo et al. [2008]
[20] = target: T2, human 5-HT7 receptors; test: [^3H]-LSD binding in membrane homogenates of HEK-hu5-HT7 cells
[21] = target: T1, human 5-HT7(a) receptor; test: 5-CT-stimulated cAMP assay in the presence of the compounds (antagonist curves, Schild analysis), HEK-hu5-HT7 cells; format: cell-based
Protocol: as §1, with “forskolin.” for “forskolin. After proceeding with the subsequent assay steps according to the manufacturer's protocol, the fluorescence emission intensity ratio at 665/620 nm wavelength was measured in an Ultra Evolution 384 microplate reader (TECAN, Männedorf, Switzerland).”
as §4

[22] = system: 5-HT7 receptors; parameters: method as in Lacivita et al. [2012]; conditions: ref Lacivita et al. [2012]; cited from earlier work

T2 sequence (P34969 1-445 isoform P34969-2): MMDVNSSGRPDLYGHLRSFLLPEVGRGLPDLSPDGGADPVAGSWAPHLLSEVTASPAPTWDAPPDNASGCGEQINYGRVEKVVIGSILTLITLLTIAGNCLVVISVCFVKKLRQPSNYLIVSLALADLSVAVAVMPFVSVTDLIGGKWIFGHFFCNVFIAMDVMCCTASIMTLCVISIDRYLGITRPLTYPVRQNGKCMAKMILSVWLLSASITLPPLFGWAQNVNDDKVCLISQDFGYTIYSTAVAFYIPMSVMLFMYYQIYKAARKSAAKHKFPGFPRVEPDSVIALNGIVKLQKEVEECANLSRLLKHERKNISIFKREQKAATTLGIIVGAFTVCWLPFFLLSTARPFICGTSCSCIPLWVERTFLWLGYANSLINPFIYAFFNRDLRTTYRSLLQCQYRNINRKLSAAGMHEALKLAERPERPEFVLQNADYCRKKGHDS
T1 sequence (P34969 1-445 isoform P34969-2): as above

inhibition at 10 µM [8]: 95.03 ± 0.47%
Hill slope nH (membrane homogenate radioligand binding) [15]: 1
SMILES: N#Cc1ccc(CNC(=O)CCCCCN2CCN(c3ccccc3-c3ccccc3)CC2)cc1 [LP-211, N-(4-cyanophenylmethyl)-4-(2-diphenyl)-1-piperazinehexanamide]
Effect on substance P-induced contraction in isolated guinea pig ileum [1]: elicited relaxation of substance P-induced contraction
Effect on long-term synaptic depression induced by metabotropic glutamate receptors [2]: reverted long-term synaptic depression
Effect on body temperature in wild type and 5-HT7 knock-out mice [3]: induced hypothermia in wild type but not in 5-HT7 knock-out mice
Ki [4]: 142 nM
Ki [5]: 0.58 nM
Behavioural effect in mice (anxiety) [6]: antianxiety-like effects
IC50 [7]: 60.71 ± 0.48 nM
Effect on capsaicin-induced increase in Fos-like immunoreactivity [9]: able to modulate the capsaicin-induced increase
Agonist effect on cAMP levels [10]: did not elicit any detectable increase in cAMP levels
IC50 [11]: 13.9 ± 3.93 nM
Ki ([12]; Hedlund et al. [2010]): 188 to 379 nM
Metabolism in disposition studies [13]: undergoes N-dealkylation to RA-7
Effect on forskolin-stimulated cAMP production in the parental cell line [14]: no effect

IC50 [17]: 41.8 ± 18 nM
Ki ([18]; read-out: 5-HT7 affinity (whole-cell radioligand binding) Ki): 13.8 ± 0.24 nM
Fold lower affinity for 5-HT1A receptors than for 5-HT7 receptors [19]: 9.7 fold
nH, displacement of [^3H]-LSD binding ([20]; data not shown): 1.11 ± 0.19
Ki ([20]; n = 3, data not shown, read-out: Ki, displacement of [^3H]-LSD binding): 37.9 ± 11.3 nM
IC50 ([8]; 30 min preincubation, washout, then 2 nmol/L radioligand): 22.4 ± 7.63 nM
inhibition at 10 µM [8]: 97.2 ± 0.23%
IC50 [21]: 27.8 ± 6.72 nM
5-HT7 affinity (membrane homogenate radioligand binding) pKi ([15]; 2 nmol/L [^3H]-SB-269970, HEK-hu5-HT7 membrane homogenate): 7.78
Ki ([15]; 2 nmol/L [^3H]-SB-269970, HEK-hu5-HT7 membrane homogenate, 60 min 37°C, read-out: 5-HT7 affinity (membrane homogenate radioligand binding) Ki): 16.6 ± 0.99 nM
Hill slope nH (membrane homogenate radioligand binding) [15]: 1.34 ± 0.14
SMILES: O=C(CCCCCN1CCN(c2ccccc2-c2ccccc2)CC1)NCc1ccccc1 [MEL-9, N-benzyl-4-(2-diphenyl)-1-piperazinehexanamide]
Ki [16]: 0.8 nM
Ki [4]: 161 nM
IC50 [7]: 19.3 ± 8.18 nM
Agonist effect on cAMP levels [10]: did not elicit any detectable increase in cAMP levels
IC50 [11]: 11.2 ± 3.25 nM
Ki [12]: 503 nM
Effect on forskolin-stimulated cAMP production in the parental cell line [14]: no effect

SMILES: c1ccc(-c2ccccc2N2CCNCC2)cc1 [RA-7, 1-(2-biphenyl)piperazine]
remaining activity at 10 µM ([18]; read-out: [^3H]-SB-269970 specific binding (percent of control), competitive whole-cell binding, 10 μmol/L, n = 3): 0.64 ± 0.44%
Action at 5-HT7 receptors in HeLa cells [22]: high-affinity receptor 5-HT7 antagonist
Inhibition of specific binding of [^3H]-SB-269970 after preincubation and washout ([8]; 10 μmol/L, 30 min at 37°C, time t = 0 after washout): ~50%
Duration of inhibition of [^3H]-SB-269970 binding after compound removal ([8]; preincubation with 10 μmol/L, recovery followed at 0, 1, 3, 6 and 24 h): at least 24 h
inhibition at 10 µM [8]: 54.8 ± 5.15%
